Assay [1] can be described thus: DRUGMATRIX: Calcium Channel Type L, Benzothiazepine radioligand binding (ligand: [3H] Diltiazem). The class given is cell membranes, Rattus norvegicus, Wistar, Brain, Membrane. The note with it: Not Active = under 50% inhibition at 10 µM.
In assay [2] the target is T1, Muscarinic acetylcholine receptor M5 (Homo sapiens, UniProt P08912). Note: in other assays of this panel Not Active means under 50% inhibition at 10 µM.
T1 sequence (P08912 whole entry): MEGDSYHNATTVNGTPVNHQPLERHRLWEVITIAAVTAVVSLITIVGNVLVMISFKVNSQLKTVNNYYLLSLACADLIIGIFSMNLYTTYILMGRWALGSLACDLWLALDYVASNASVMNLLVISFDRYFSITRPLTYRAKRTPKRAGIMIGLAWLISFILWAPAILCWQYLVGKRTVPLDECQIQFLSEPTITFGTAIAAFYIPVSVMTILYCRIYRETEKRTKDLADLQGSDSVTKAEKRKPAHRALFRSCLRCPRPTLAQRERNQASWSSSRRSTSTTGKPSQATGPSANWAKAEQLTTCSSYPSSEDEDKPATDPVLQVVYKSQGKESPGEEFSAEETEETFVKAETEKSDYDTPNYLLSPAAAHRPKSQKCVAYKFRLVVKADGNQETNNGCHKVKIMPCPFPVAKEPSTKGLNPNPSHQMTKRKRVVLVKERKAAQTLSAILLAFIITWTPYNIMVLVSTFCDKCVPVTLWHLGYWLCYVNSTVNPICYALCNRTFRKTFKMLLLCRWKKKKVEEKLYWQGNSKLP
The class given is cell membranes, CHO-K1, Membrane. The note with it: cho-k1.

Assay [3] is described as follows: DRUGMATRIX: Platelet-Derived Growth Factor (PDGF) radioligand binding (ligand: [125I] PDGF). The class given is cell-based. The note with it: nih3t3; Not Active = under 50% inhibition at 10 µM.
The nature of assay [4]: DRUGMATRIX: Glutamate, NMDA, Phencyclidine radioligand binding (ligand: [3H] TCP). The class given is cell membranes, Rattus norvegicus, Wistar, Cerebral cortex, Membrane. The note with it: Not Active = under 50% inhibition at 10 µM.
For assay [5], the target named is T2, C-X-C chemokine receptor type 1 (Homo sapiens, UniProt P25024). Note: in other assays of this panel Not Active means under 50% inhibition at 10 µM.
T2 sequence (P25024 whole entry): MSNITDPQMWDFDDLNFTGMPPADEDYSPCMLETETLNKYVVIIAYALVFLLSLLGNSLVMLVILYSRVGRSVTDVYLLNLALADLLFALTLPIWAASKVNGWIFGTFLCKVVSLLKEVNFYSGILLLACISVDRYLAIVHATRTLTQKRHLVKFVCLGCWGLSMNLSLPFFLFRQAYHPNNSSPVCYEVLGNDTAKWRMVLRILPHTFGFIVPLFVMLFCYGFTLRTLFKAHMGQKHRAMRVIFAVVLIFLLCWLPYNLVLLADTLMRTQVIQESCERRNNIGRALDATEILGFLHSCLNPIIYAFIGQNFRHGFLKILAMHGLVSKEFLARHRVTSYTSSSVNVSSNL

Another assay concerns the target T3, Cathepsin G (Homo sapiens, UniProt P08311).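 Note: inhibition of Cathepsin G enzyme activity, tested on an AMC-conjugated peptide substrate; in other assays of this panel Not Active means under 50% inhibition at 10 µM.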
T3 sequence (P08311 whole entry): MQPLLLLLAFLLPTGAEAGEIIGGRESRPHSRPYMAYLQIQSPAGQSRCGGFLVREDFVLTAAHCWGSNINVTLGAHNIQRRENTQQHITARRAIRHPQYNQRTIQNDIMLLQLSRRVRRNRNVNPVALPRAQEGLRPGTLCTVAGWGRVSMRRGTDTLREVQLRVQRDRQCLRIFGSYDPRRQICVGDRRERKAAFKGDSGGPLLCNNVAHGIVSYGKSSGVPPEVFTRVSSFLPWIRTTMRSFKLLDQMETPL
Format: tissue-based. The note with it: neutrophil.

The target in assay [6] is Beta-3 adrenergic receptor (Homo sapiens, UniProt P13945). Briefly: DRUGMATRIX: Adrenergic beta3 radioligand binding (ligand: [125I] Cyanopindolol). The following applies: hek293; Not Active = under 50% inhibition at 10 µM. Format: cell membranes, HEK293, Membrane.
For assay [7], the target named is C-C chemokine receptor type 2 (Homo sapiens, UniProt P41597). Format: cell membranes, CHO-K1, Membrane. The note with it: cho-k1. Note: in other assays of this panel Not Active means under 50% inhibition at 10 µM.
Assay [8] has as its target T4, Angiotensin-converting enzyme (Oryctolagus cuniculus, UniProt P12822).
T4 sequence (P12822 whole entry): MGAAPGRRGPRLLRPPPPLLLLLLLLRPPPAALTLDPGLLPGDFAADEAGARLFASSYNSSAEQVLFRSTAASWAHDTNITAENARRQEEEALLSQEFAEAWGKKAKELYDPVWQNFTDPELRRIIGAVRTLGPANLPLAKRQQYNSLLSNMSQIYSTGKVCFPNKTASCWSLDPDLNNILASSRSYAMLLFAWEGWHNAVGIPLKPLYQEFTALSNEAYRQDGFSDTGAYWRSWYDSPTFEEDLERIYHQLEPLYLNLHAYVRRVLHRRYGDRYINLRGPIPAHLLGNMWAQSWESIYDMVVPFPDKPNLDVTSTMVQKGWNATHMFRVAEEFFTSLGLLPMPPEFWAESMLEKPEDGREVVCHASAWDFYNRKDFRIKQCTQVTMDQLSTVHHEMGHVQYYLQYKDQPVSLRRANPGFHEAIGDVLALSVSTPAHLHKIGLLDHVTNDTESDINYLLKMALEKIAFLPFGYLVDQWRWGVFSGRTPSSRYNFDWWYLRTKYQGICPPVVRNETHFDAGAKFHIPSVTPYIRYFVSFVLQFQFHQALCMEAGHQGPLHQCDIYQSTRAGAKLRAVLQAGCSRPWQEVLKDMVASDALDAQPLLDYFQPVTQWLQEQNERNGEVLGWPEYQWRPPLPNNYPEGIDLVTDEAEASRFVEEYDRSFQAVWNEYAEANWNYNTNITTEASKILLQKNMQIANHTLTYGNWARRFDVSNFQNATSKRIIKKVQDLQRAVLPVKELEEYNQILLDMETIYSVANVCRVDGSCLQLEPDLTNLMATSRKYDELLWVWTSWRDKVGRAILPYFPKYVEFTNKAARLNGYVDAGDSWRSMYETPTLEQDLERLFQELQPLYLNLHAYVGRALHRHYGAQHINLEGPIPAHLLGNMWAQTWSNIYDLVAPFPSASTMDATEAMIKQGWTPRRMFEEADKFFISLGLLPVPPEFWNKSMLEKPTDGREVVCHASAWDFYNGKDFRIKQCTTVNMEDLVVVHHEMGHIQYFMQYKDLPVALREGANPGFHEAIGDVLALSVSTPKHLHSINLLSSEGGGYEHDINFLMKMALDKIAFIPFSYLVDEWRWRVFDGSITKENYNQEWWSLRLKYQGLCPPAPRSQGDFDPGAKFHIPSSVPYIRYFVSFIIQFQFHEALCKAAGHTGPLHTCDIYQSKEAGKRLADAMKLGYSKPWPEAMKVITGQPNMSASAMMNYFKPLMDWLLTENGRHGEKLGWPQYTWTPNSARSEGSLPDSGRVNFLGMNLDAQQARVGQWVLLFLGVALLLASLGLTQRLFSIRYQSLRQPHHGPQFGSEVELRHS
Briefly: biochemical. Format: tissue-based, Lung.

In assay [9] the target is Prostaglandin G/H synthase 1 (Homo sapiens, UniProt P23219). Briefly: biochemical. Format: tissue-based, Platelet. The following applies: platelet.

The record followed here is ChEMBL document CHEMBL1909046, “DrugMatrix in vitro pharmacology data”.

Chain of C-C chemokine receptor type 2 (P41597 whole entry): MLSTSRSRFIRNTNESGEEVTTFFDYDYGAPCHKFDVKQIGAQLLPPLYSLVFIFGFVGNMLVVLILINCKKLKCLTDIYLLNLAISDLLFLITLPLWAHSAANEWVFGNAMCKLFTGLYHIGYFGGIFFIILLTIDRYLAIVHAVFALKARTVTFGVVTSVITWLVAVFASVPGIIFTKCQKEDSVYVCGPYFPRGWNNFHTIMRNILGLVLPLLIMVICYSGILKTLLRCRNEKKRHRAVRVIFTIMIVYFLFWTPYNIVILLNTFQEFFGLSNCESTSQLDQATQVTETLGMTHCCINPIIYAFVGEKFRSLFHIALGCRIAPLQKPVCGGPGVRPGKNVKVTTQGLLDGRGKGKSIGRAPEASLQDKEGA
Chain of Prostaglandin G/H synthase 1 (P23219 whole entry): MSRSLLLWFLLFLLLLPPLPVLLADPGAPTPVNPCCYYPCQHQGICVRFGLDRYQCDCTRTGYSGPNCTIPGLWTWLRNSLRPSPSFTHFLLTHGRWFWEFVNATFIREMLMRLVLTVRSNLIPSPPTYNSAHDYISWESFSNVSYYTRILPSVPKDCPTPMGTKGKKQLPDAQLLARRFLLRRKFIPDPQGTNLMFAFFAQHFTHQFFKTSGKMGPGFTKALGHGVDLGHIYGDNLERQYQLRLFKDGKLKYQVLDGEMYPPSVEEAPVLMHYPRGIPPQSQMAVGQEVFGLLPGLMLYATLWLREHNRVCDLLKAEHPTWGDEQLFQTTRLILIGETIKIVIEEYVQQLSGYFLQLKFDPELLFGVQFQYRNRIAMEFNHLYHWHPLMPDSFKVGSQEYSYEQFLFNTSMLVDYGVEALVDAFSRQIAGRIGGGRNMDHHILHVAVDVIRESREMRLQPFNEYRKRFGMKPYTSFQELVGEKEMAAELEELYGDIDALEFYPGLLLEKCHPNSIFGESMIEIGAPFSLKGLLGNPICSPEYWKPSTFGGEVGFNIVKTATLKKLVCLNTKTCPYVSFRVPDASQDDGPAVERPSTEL
Chain of Beta-3 adrenergic receptor (P13945 whole entry): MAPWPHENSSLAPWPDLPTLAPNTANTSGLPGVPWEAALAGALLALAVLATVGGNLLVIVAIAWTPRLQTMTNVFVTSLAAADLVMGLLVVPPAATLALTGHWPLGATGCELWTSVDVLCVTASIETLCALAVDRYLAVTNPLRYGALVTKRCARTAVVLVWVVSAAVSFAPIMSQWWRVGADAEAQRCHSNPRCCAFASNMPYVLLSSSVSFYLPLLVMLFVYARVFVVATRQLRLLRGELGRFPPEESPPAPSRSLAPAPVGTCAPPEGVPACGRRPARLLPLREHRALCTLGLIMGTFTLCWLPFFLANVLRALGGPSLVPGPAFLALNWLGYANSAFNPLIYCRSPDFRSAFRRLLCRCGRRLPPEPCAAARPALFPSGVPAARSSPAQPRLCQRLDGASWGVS

Broadly, the IC50 is the midpoint of a concentration-inhibition curve. Broadly, the Ki is the dissociation constant of the complex between target and ligand, obtained from inhibition or displacement. Turning to `COC(=O)[C@@H]1[C@H]2C[C@H]3c4[nH]c5ccccc5c4CCN3C[C@@H]2CC[C@@H]1O` [YOHIMBINE], the IC50 entry (in assay [1]; in assay [2]; in assay [3]; in assay [4]; in assay [5]; against Cathepsin G) was “Not Active” each time. Further, the IC50 result in assay [6], in [7], in assay [8] and in assay [9] was “Not Active” throughout. In addition, the inhibition constant Ki entry in assay [1], in assay [3] and in assay [4] was “Not Active” in each case.
Consider IVERMECTIN, for which the IC50 entry in assay [1] was “Not Active”; in assay [2] (read-out: IC50), 3.61 µM; in [3], “Not Active”; in assay [4], “Not Active”; in assay [5], “Not Active”; at Cathepsin G it was “Not Active”. For the same compound, the half-maximal inhibitory concentration (IC50) result in assay [6], in assay [7], in assay [8] and in assay [9] was “Not Active” in each case. Besides, the inhibition constant (Ki) entry in assay [1] is “Not Active”; in [2] (read-out: Ki), 2.59 µM; in assay [3] it was “Not Active”; in [4], “Not Active”; in assay [5] it was “Not Active”; on Cathepsin G it was “Not Active”. Moreover, the Ki result in assay [6], in assay [7], in assay [8] and in assay [9] was “Not Active” each time.
